Results: BigSolDB 2.1

CC(=O)c1c(C)c([N+](=O)[O-])c(C(C)(C)C)c([N+](=O)[O-])c1C
solubility (mole fraction)
Settings | 273.15 K | 278.15 K | 283.15 K | 288.15 K | 293.15 K | 298.15 K | 303.15 K | 308.15 K | 313.15 K
in ethanol | 0.0016 | 0.00198 | 0.00241 | 0.00295 | 0.00354 | 0.00426 | 0.00512 | 0.00619 | 0.0074
in ethyl acetate | 0.055 | 0.0641 | 0.0742 | 0.0852 | 0.0954 | 0.111 | 0.122 | 0.139 | 0.156
in methanol | 0.00108 | 0.00128 | 0.00157 | 0.00187 | 0.00225 | 0.00272 | 0.00326 | 0.00387 | 0.00458
in n-butanol | 0.0022 | 0.00286 | 0.00368 | 0.00449 | 0.00533 | 0.00666 | 0.00812 | 0.00972 | 0.012
